Assay results as given in patent US20130065833A1, “ALKYLATED SP-B PEPTOID COMPOUNDS AND RELATED LUNG SURFACTANT COMPOSITIONS” (Northwestern University, priority 2010, published 2013).

Experiment: Pulsating bubble surfactometry (PBS), dynamic-mode cycling at 20 cpm
Type: physicochemical
Settings: 37° C.; for γmax: time point not stated; for % comp (percent SA compression to reach 20 mN m^−1): PBS dynamic-mode, 20 cpm, 100*[(SAmax−SA20)/(SAmax)]
Procedure: The maintenance of good surfactant activity during the dynamic changes in volume or film surface area at the a/l interface was assessed via bubble pulsation in PBS dynamic-mode. This method permits a simplified evaluation of in vitro dynamic film behavior. (Seurynck, S. L., Brown, N. J., Wu, C. W., Germino, K. W., Kohlmeir, E. K., Ingenito, E. P., Glucksberg, M. R., Barron, A. E., and Johnson, M. (2005) J. Appl. Physiol. 99, 624-633.) The γ-surface area (SA) data loops in FIG. 4B for each lipid-peptoid mixture are one representative pulsation cycle at 20 cycles per minute (cpm) after five minutes at 37° C., with bubble expansion in a clockwise loop direction.
The absence of low-γ data in some loops results from the inability of the image analysis system to trace the bubble shape in this regime. The highly compressed state of the film, which enables it to reach low γ, often causes significant bubble shape deformation, eliminating the possibility of tracing the bubble to obtain SA or employing the ellipsoidal Laplace equation to calculate γ. […] Visual, real-time bubble inspection confirmed that significant bubble deformation occurred and that γ reached near-zero in these films.
The lipids DPPC, POPG, and PA were individually dissolved in a chloroform/methanol solution (3/1 [v/v]) to a known concentration (˜2 or 4 mg mL^−1). Single-lipid solutions were then combined by volume at the ratio of DPPC:POPG:PA, 68:22:9 [wt:wt:wt] and to a known total lipid concentration (˜2 mg mL^−1). This well-characterized lipid formulation, the Tanaka Lipids (TL), is considered an adequate mimic of the non-protein (lipid) fraction of LS. The peptides and peptoids were individually dissolved in methanol from a lyophilized powder to a known concentration (1-2 mg mL^−1). For the PBS and LWSB/FM studies, the peptides and peptoids were added to the TL lipid solution at 2.16 mol % (˜10-12 absolute wt %, see Table 1), and the final solution was diluted to ˜1 mg lipid mL^−1. For comparative purposes, the inclusion of peptide/peptoid at 2.16 mol % corresponds to 10 wt % SP-B1-25 relative to the total lipid content (9.1 absolute wt %). Porcine SP-B was dissolved to a known concentration in chloroform/methanol and added to the TL solution at 0.72 mol %, corresponding to roughly 10 wt % of the monomer unit relative to the total lipid content (9.1 absolute wt %). For PBS and LWSB experiments, the standard deviation of the mean (a) was reported.
A commercial pulsating bubble surfactometry (PBS) instrument (General Transco, Largo, FL), modified with a direct, real-time imaging system, which has been previously described and validated in detail, was utilized to obtain both static-mode and dynamic-mode data. Samples were dried to a pellet from chloroform/methanol 3/1 [v/v] using a DNA 120 speedvac (Thermo Electron, Holbrook, N.Y.). The pellet was resuspended in buffer (150 mM NaCl, 10 mM HEPES, 5 mM CaCl2, pH 6.9) to 1.0 mg lipid mL^−1, with a known final volume of 70 μL. Samples were mixed with a pipette 20 times, sonicated with a Fisher Model 60 probe sonicator for two 15-second spurts, and then mixed again 20 times to form a dispersed suspension. Samples were then loaded into a small plastic sample chamber (General Transco) using a modified leak-free methodology. […]

| γmax (PBS dynamic-mode in a TL film) | % comp (percent SA compression to reach 20 mN m^−1) | γmin (PBS dynamic-mode in a TL film) | Substance |
| --- | --- | --- | --- |
| ~35 mN m^−1 | 12% | – | Noct2-Nspe6-NLys-Nspe2-NLys2-Nspe4-NLys-Nspe2 [peptoid 3] |
| 46 mN m^−1 | ~26% | near-zero | Nspe8-NLys*-Nspe2-NLys2-Nspe4-NLys-Nspe2 [peptoid 1] |
